Reference: US20060069132A1, “Azolecarboxamide herbicides” (priority 2004, published 2006)

Columns and labels:
[1] = test system: lambsquarters; experiment: Test B pre-/postemergence herbicide test; type: in vivo, Chenopodium album; conditions: for Lambsquarters plant response rating: postemergence, visual rating, scale 0 (no effect) to 100 (complete control)
Summary of the method: (§1)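 Plants compared with untreated controls 13–15 days post-treatment and given a visual 0–100 injury score. Applications: preemergence to seeds; postemergence at 1- to 4-leaf (2–18 cm); paddy species flooded, 2-leaf stage. Vehicle non-phytotoxic, surfactant included.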

[2] = test system: ducksalad; experiment: Test C flooded paddy test; type: in vivo, Heteranthera limosa
[3] = test system: morningglory; experiment: Test B pre-/postemergence herbicide test; type: in vivo, Ipomoea coccinea; conditions: for Morningglory plant response rating: postemergence, visual rating, scale 0 (no effect) to 100 (complete control)
Summary of the method: (§2)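 Evaluation is visual, comparing treated with control plants on a scale where 0 means no effect and 100 means full control. Treatments were preemergence, or postemergence on seedlings 2–18 cm tall, and held 13–15 days in the greenhouse.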

[4] = test system: blackgrass; experiment: Test B postemergence herbicide test; type: in vivo, Alopecurus myosuroides; conditions: postemergence, visual rating, scale 0 (no effect) to 100 (complete control)
Summary of the method: (§3)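 Each value is a visual 0–100 response rating taken against controls 13 to 15 days after treatment in the greenhouse. Plants received formulated chemical postemergence at the 1- to 4-leaf stage or, in flooded paddy, at the 2-leaf stage.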

[5] = test system: pigweed; experiment: Test B pre-/postemergence herbicide test; type: in vivo, Amaranthus retroflexus; conditions: for Pigweed plant response rating: postemergence, visual rating, scale 0 (no effect) to 100 (complete control)
Summary of the method: as §1

[6] = test system: rice; experiment: Test C flooded paddy test; type: in vivo, Oryza sativa
Summary of the method: (§4)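 Plants were grown to the 1- to 4-leaf stage (2–18 cm) and then treated postemergence, or grown to the 2-leaf stage for the flooded paddy test. They were held in a greenhouse for 12 to 14 days and then scored by eye against controls, where 0 is no effect and 100 is complete control.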

[7] = test system: wild oat; experiment: Test B postemergence herbicide test; type: in vivo, Avena fatua; conditions: postemergence, visual rating, scale 0 (no effect) to 100 (complete control)
Summary of the method: (§5)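 Greenhouse test; postemergence application to plants at 1–4 leaves (2–18 cm); paddy species at 2 leaves; evaluated visually vs controls at 13–15 days; scale 0–100 (100 = complete control).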

[8] = test system: rice; experiment: Test B pre-/postemergence herbicide test; type: in vivo, Oryza sativa; conditions: preemergence
Summary of the method: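 Greenhouse pot assay with simultaneous preemergence (treated seed) and postemergence (2–18 cm seedlings) applications of surfactant-containing, non-phytotoxic solvent formulations. Response scored visually 13–15 days later on a 0–100 scale, 100 meaning complete control.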

[9] = test system: rice; experiment: Test B flooded paddy test; type: in vivo, Oryza sativa; conditions: 1000 g ai/ha, visual rating, scale 0 to 100 (0 no effect, 100 complete control), 13 to 15 days
Summary of the method: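 Formulated test chemicals went onto postemergence plants measuring 2 to 18 cm, at one to four leaves. For the paddy assay, species had reached two leaves. Scoring took place 13–15 days later by eye, relative to untreated plants, using 0 for no effect up to 100 for full control.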

[10] = test system: cocklebur; experiment: Test B pre-/postemergence herbicide test; type: in vivo, Xanthium strumarium; conditions: for Cocklebur plant response rating: postemergence, visual rating, scale 0 (no effect) to 100 (complete control)
Summary of the method: as §2

[11] = test system: barnyardgrass; experiment: Test C flooded paddy test; type: in vivo, Echinochloa crus-galli
Summary of the method: as §4

[12] = test system: small flower umbrella sedge; experiment: Test B flooded paddy test; type: in vivo, Cyperus difformis; conditions: 1000 g ai/ha, visual rating, scale 0 to 100 (0 no effect, 100 complete control), 13 to 15 days
Summary of the method: as §3

[13] = test system: wheat; experiment: Test B postemergence herbicide test; type: in vivo, Triticum aestivum; parameters: key to Wheat plant response rating: 0 = no effect, 100 = complete control; conditions: postemergence, visual rating, scale 0 (no effect) to 100 (complete control)
Summary of the method: as §5

[14] = test system: giant foxtail; experiment: Test B pre-/postemergence herbicide test; type: in vivo, Setaria faberi; conditions: for Foxtail, Giant plant response rating: postemergence, visual rating, scale 0 (no effect) to 100 (complete control)
Summary of the method: as §1

[15] = test system: barnyardgrass; experiment: Test B pre-/postemergence herbicide test; type: in vivo, Echinochloa crus-galli; conditions: for Barnyardgrass plant response rating: postemergence, visual rating, scale 0 (no effect) to 100 (complete control)
Summary of the method: as §2

[16] = test system: ducksalad; experiment: Test B flooded paddy test; type: in vivo, Heteranthera limosa; conditions: 1000 g ai/ha, visual rating, scale 0 to 100 (0 no effect, 100 complete control), 13 to 15 days
Summary of the method: as §3

[17] = test system: velvetleaf; experiment: Test B pre-/postemergence herbicide test; type: in vivo, Abutilon theophrasti; conditions: for Velvetleaf plant response rating: postemergence, visual rating, scale 0 (no effect) to 100 (complete control)
Summary of the method: as §1

[18] = test system: barnyardgrass; experiment: Test B flooded paddy test; type: in vivo, Echinochloa crus-galli; conditions: 1000 g ai/ha, visual rating, scale 0 to 100 (0 no effect, 100 complete control), 13 to 15 days
Summary of the method: as §3

[19] = test system: smallflower umbrella sedge; experiment: Test C flooded paddy test; type: in vivo, Cyperus difformis
[20] = test system: corn; experiment: Test B pre-/postemergence herbicide test; type: in vivo, Zea mays; conditions: for Corn plant response rating: postemergence, visual rating, scale 0 (no effect) to 100 (complete control)
Summary of the method: as §1

[21] = test system: large crabgrass; experiment: Test B pre-/postemergence herbicide test; type: in vivo, Digitaria sanguinalis; conditions: for Crabgrass, Large plant response rating: postemergence, visual rating, scale 0 (no effect) to 100 (complete control)
Summary of the method: as §1

[22] = test system: Surinam grass; experiment: Test B pre-/postemergence herbicide test; type: in vivo, Urochloa decumbens; conditions: for Surinam Grass plant response rating: postemergence, visual rating, scale 0 (no effect) to 100 (complete control)
Summary of the method: as §1

[23] = 125 g ai/ha, 0 = no effect, 100 = complete control, preemergence
[24] = 500 g ai/ha, visual rating 0-100, 0 no effect, 100 complete control, preemergence
[25] = 62 g ai/ha, scale 0 to 100 (0 no effect, 100 complete control)
[26] = 125 g ai/ha, scale 0 to 100 (0 no effect, 100 complete control)
[27] = 250 g ai/ha, scale of 0 to 100, 0 is no effect, 100 is complete control
[28] = 500 g ai/ha, visual rating after 12 to 14 days, scale 0 to 100 (0 no effect, 100 complete control)

CCOC(=O)c1cccc(NC(=O)c2cn(C(C)(C)C)nc2CC)c1 [Compound 186]
Lambsquarters plant response rating (0 to 100 scale) [1, 23]: 0
Plant response rating, Lambsquarters [1, 24]: 0
Lambsquarters plant response rating ([1]; 125 g ai/ha): 10
Lambsquarters plant response rating ([1]; 500 g ai/ha): 30
Ducksalad plant response rating [2, 25]: 15
Ducksalad plant response rating [2, 26]: 40
Ducksalad plant response rating [2, 27]: 65
Plant response rating, Ducksalad [2, 28]: 80
Morningglory plant response rating (0 to 100 scale) [3, 23]: 0
Plant response rating, Morningglory [3, 24]: 0
Morningglory plant response rating ([3]; 125 g ai/ha): 20
Morningglory plant response rating ([3]; 500 g ai/ha): 30
Blackgrass plant response rating ([4]; 125 g ai/ha): 10
Blackgrass plant response rating ([4]; 500 g ai/ha): 30
Pigweed plant response rating (0 to 100 scale) [5, 23]: 0
Plant response rating, Pigweed [5, 24]: 0
Pigweed plant response rating ([5]; 125 g ai/ha): 60
Pigweed plant response rating ([5]; 500 g ai/ha): 60
Rice plant response rating [6, 25]: 40
Rice plant response rating [6, 26]: 55
Rice plant response rating [6, 27]: 60
Plant response rating, Rice [6, 28]: 65
Oat, Wild plant response rating ([7]; 125 g ai/ha): 10
Oat, Wild plant response rating ([7]; 500 g ai/ha): 20
Rice plant response rating (0 to 100 scale) ([8]; 125 g ai/ha, 0 = no effect, 100 = complete control): 0
Plant response rating, Rice ([8]; 500 g ai/ha, visual rating 0-100, 0 no effect, 100 complete control): 20
Rice plant response rating [9]: 30
Cocklebur plant response rating (0 to 100 scale) [10, 23]: 0
Plant response rating, Cocklebur [10, 24]: 0
Cocklebur plant response rating ([10]; 125 g ai/ha): 60
Cocklebur plant response rating ([10]; 500 g ai/ha): 90
Barnyardgrass plant response rating [11, 25]: 20
Barnyardgrass plant response rating ([11]; 125 g ai/ha, scale of 0 to 100, 0 is no effect, 100 is complete control): 30
Barnyardgrass plant response rating [11, 27]: 45
Plant response rating, Barnyardgrass [11, 28]: 70
Sedge, Umbrella plant response rating [12]: 90
Wheat plant response rating ([13]; 125 g ai/ha): 10
Wheat plant response rating ([13]; 500 g ai/ha): 20
Foxtail, Giant plant response rating (0 to 100 scale) [14, 23]: 0
Plant response rating, Foxtail, Giant [14, 24]: 10
Foxtail, Giant plant response rating ([14]; 125 g ai/ha): 10
Foxtail, Giant plant response rating ([14]; 500 g ai/ha): 20
Barnyardgrass plant response rating (0 to 100 scale) [15, 23]: 0
Plant response rating, Barnyardgrass [15, 24]: 10
Barnyardgrass plant response rating ([15]; 125 g ai/ha): 10
Barnyardgrass plant response rating ([15]; 500 g ai/ha): 50
Ducksalad plant response rating [16]: 90
Velvetleaf plant response rating (0 to 100 scale) [17, 23]: 10
Plant response rating, Velvetleaf [17, 24]: 20
Velvetleaf plant response rating ([17]; 125 g ai/ha): 60
Velvetleaf plant response rating ([17]; 500 g ai/ha): 60
Barnyardgrass plant response rating [18]: 30
Sedge, Umbrella plant response rating [19, 25]: 80
Sedge, Umbrella plant response rating [19, 26]: 80
Sedge, Umbrella plant response rating [19, 27]: 80
Plant response rating, Sedge, Umbrella [19, 28]: 85
Corn plant response rating (0 to 100 scale) [20, 23]: 0
Plant response rating, Corn [20, 24]: 10
Corn plant response rating ([20]; 125 g ai/ha): 20
Corn plant response rating ([20]; 500 g ai/ha): 20
Crabgrass, Large plant response rating (0 to 100 scale) [21, 23]: 0
Plant response rating, Crabgrass, Large [21, 24]: 10
Crabgrass, Large plant response rating ([21]; 125 g ai/ha): 10
Crabgrass, Large plant response rating ([21]; 500 g ai/ha): 10
Surinam Grass plant response rating (0 to 100 scale) [22, 23]: 0
Plant response rating, Surinam Grass [22, 24]: 10
Surinam Grass plant response rating ([22]; 125 g ai/ha): 10
Surinam Grass plant response rating ([22]; 500 g ai/ha): 30
